In ChEMBL document CHEMBL1145898, “Molecular docking studies of natural cholinesterase-inhibiting steroidal alkaloids from Sarcococca saligna” (J Med Chem, 2003):

Columns and labels:
[1] = target: T1, Acetylcholinesterase (Torpedo californica, UniProt P04058); test: In vitro binding affinity was determined against acetylcholinesterase from torpedo californica; design: species or system Tetronarce californica
[2] = target: T1, Acetylcholinesterase; test: In vitro anticholinesterase activity was determined against acetylcholinesterase from Torpedo californica; design: species or system Tetronarce californica

T1 sequence (P04058 whole entry): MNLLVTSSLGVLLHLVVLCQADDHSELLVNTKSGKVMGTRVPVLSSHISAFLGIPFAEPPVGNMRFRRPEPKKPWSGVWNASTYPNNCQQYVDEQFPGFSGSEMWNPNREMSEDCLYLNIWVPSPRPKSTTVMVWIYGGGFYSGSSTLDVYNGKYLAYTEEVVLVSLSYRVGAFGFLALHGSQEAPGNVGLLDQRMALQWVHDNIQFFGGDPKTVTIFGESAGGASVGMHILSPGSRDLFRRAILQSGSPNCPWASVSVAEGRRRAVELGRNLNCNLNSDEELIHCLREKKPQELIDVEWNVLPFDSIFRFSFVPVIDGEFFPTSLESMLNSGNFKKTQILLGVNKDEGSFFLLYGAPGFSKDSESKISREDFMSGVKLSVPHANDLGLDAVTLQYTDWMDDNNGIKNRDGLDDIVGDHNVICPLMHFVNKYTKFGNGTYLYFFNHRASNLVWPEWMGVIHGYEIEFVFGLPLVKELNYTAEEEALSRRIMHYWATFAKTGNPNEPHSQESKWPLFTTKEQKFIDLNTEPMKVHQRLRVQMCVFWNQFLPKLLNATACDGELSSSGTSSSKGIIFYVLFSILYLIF

**Q.** With `C/C=C(\C)C(=O)N[C@H]1CC[C@@]2(C)C(=CC[C@H]3C4=CC[C@H]([C@H](C)N(C)C)[C@@]4(C)CC[C@@H]32)C1=O` as the molecule, how does the Ki [1] read?
**A.** 2.65 µM

**Q.** With `C/C=C(\C)C(=O)N[C@@H]1C=C2CC[C@@H]3[C@H](CC[C@]4(C)C([C@H](C)N(C)C)=CC[C@@H]34)[C@@]2(C)C[C@H]1O` as the molecule, how does the IC50 [2] read?
**A.** 185 µM

**Q.** Which results are given for `CC(=O)O[C@H]1[C@@H](NC(=O)C=C(C)C)CC[C@]2(C)[C@H]3CC[C@]4(C)[C@@H]([C@H](C)N(C)C)CC[C@H]4[C@@H]3CC[C@@H]12`?
**A.** Ki [1]: 17.6 µM; IC50 [2]: 8.5 µM

**Q.** `CN[C@H]1CC[C@@]2(C)[C@@H](CC[C@@H]3[C@@H]2CC[C@]2(C)[C@@H]([C@H](C)N(C)C(C)=O)CC[C@@H]32)C1` was tested. Which Ki [1] did it give?
**A.** 216 µM

**Q.** And the IC50 [2]?
**A.** 204 µM

**Q.** `C[C@@H]([C@H]1CC[C@H]2[C@@H]3CC[C@H]4C(=O)C(NC(=O)c5ccccc5)=CC[C@]4(C)[C@H]3CC[C@]12C)N(C)C` was tested. Which Ki [1] did it give?
**A.** 3.03 µM

**Q.** And the IC50 [2]?
**A.** 5.2 µM

**Q.** For `C/C=C(\C)C(=O)N[C@@H]1[C@H](OC(C)=O)[C@@H]2CC[C@H]3C4=CC[C@H]([C@H](C)N(C)C)[C@@]4(C)CC[C@@H]3[C@@]2(C)C[C@@H]1O`, which Ki [1] is on record?
**A.** 134 µM

**Q.** What about the IC50 [2] of the same molecule?
**A.** 61.3 µM

**Q.** For `C[C@@H]([C@H]1CC[C@H]2[C@@H]3CC[C@H]4C[C@@H](NC(=O)c5ccccc5)[C@@H](O)C[C@]4(C)[C@H]3CC[C@]12C)N(C)C`, which IC50 [2] is on record?
**A.** 78.2 µM

**Q.** For `C/C=C(\C)C(=O)N[C@H]1CC[C@@]2(C)C(=CC[C@H]3[C@@H]4CC[C@H]([C@H](C)N(C)C)[C@@]4(C)CC[C@@H]32)C1=O`, which Ki [1] is on record?
**A.** 5.4 µM

**Q.** And the IC50 [2]?
**A.** 7.1 µM

**Q.** `C/C(=C\C(=O)N(C)[C@H]1CC[C@@]2(C)[C@@H](CC[C@@H]3[C@@H]2CC[C@]2(C)[C@@H]([C@H](C)N(C)C)CC[C@@H]32)C1)C(C)C` was tested. Which Ki [1] did it give?
**A.** 4.1 µM

**Q.** With `C/C(=C\C(=O)N[C@H]1CC[C@@]2(C)[C@@H](CC[C@@H]3[C@@H]2CC[C@]2(C)[C@@H]([C@H](C)N(C)C)CC[C@@H]32)C1)C(C)C` as the molecule, how does the Ki [1] read?
**A.** 9.05 µM

**Q.** And the IC50 [2]?
**A.** 50.6 µM

**Q.** How did the Ki [1] turn out when `CC(=O)O[C@H]1[C@@H](NC(=O)c2ccccc2)[C@@H](O)C[C@]2(C)[C@H]3CC[C@]4(C)[C@@H]([C@H](C)N(C)C)CC[C@H]4[C@@H]3CC[C@@H]12` was run?
**A.** 126 µM

**Q.** What about the IC50 [2] of the same molecule?
**A.** 228 µM

**Q.** Which IC50 [2] does the source give for `C/C=C(\C)C(=O)N[C@@H]1[C@H](OC(C)=O)[C@@H]2CC[C@@H]3[C@H](CC[C@]4(C)[C@@H]([C@H](C)N(C)C)CC[C@@H]34)[C@@]2(C)C[C@@H]1O` here?
**A.** 182 µM

**Q.** For `CC(=O)N[C@H]1CC[C@@]2(C)[C@@H](CC[C@@H]3[C@@H]2CC[C@]2(C)[C@@H]([C@H](C)N(C)C)CC[C@@H]32)C1`, which Ki [1] is on record?
**A.** 90.3 µM

**Q.** What about the IC50 [2] of the same molecule?
**A.** 69.9 µM

**Q.** Which Ki [1] does the source give for `C/C(=C\C(=O)N(C)[C@H]1CC[C@@]2(C)[C@@H](CC[C@@H]3[C@@H]2CC[C@]2(C)C([C@H](C)N(C)C)=CC[C@@H]32)C1)C(C)C` here?
**A.** 10.7 µM

**Q.** What about the IC50 [2] of the same molecule?
**A.** 6.2 µM

**Q.** How did the Ki [1] turn out when `C[C@@H]([C@H]1CC[C@H]2[C@@H]3CC[C@H]4C[C@@H](N(C)C(=O)/C=C/c5ccccc5)CC[C@]4(C)[C@H]3CC[C@]12C)N(C)C` [SALIGCINNAMIDE] was run?
**A.** 12.2 µM

**Q.** What about the IC50 [2] of the same molecule?
**A.** 19.9 µM
